Where two headings read alike, the source gives them in different places.
What was measured:
[1] = tested on: Gingipain; experiment: Inhibition of bacterial virulence factor Gingipain; type: biochemical, P. gingivalis; details: at 200 uM for compounds, 0.001% for oils/extracts
From the text: (§1) P. gingivalis is a gram-negative anaerobe implicated in periodontal disease in humans and companion animals. P. gingivalis infects the gingival sulcus, producing a number of virulence factors including bacterial enzymes such as gingipains, METase and Cystalysin. Gingipains act on several immune system molecules, including kinogens, complement factors, immunoglobins, resulting in fluid influx into the sulcus, neutrophil recruitment, and bleeding. The ultimate result is a host inflammatory response characterized by cyclooxygenase (COX) induction, metalloproteinase (MMP) expression, prostaglandin elevation and reactive oxygen elevations which result in tissue damage and bone resorption, eventually leading to tooth detachment. MMP's (including various subtypes, e.g., MMP 1, 2, 3, 8, 9, 12, 13), are host extracellular matrix proteases that contribute to tissue destruction and remodeling. COX enzymes catalyze the conversion of arachidonic acid into prostaglandins, which result in vasodilation, redness, puffiness and pain.
(§2) Where no data are reported is not an indication that the compound/active has no activity; rather that the compound was not tested for that activity.

[2] = molecular target: METase (Porphyromonas gingivalis, UniProt Q7MX71); experiment: Inhibition of bacterial virulence factor METase; type: biochemical, P. gingivalis; details: read-out: METase % inhibition
From the text: as §1
(§3) Inhibition of the proteolytic action of gingipains on immuno-regulatory proteins should lead to a reduction in the inflammatory host-response and subsequent tissue damage. Other bacterial enzymes, for example, METase and Cystalysin, are involved in degrading sulfur-containing amino acids to produce volatile sulfur compounds (VSC's) such as hydrogen sulfide or methyl mercaptan that lead to bad breath or oral malodor. Inhibition of METase and Cystalysin is thus an important function for oral care agents as are inhibitory activities against key host pro-inflammatory factors including matrix metalloproteinases (MMP's), cyclooxygenases (COX) and prostaglandin (PGE2).
as §2

[3] = tested on: Cystalysin; experiment: Inhibition of bacterial virulence factor Cystalysin; type: biochemical, P. gingivalis; details: at 200 uM for compounds, 0.001% for oils/extracts
From the text: as §1, §3, §2

[4] = molecular target: T1, COX-2 (Homo sapiens, UniProt P35354); experiment: Inhibition of host inflammation factor COX-2; type: biochemical; details: read-out: COX-2 % inhibition
T1 sequence (P35354 18-604): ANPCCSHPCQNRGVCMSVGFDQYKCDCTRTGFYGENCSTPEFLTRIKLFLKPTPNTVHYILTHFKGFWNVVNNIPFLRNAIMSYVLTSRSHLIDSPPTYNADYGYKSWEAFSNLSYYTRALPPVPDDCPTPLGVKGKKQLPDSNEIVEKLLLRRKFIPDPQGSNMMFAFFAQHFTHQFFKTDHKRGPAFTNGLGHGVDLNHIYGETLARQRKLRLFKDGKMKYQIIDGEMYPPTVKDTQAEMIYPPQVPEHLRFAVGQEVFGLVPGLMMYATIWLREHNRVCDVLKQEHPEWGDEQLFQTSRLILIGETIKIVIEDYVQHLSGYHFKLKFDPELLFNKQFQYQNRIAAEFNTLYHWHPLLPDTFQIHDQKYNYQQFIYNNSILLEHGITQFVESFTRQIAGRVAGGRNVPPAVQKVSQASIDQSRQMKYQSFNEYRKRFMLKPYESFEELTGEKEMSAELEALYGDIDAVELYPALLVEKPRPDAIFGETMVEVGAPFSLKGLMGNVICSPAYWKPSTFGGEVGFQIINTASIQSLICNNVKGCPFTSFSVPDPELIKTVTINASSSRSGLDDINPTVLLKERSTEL
From the text: as §1, §2

[5] = tested on: MMP (2, 3, 12); experiment: Inhibition of host inflammation factor MMP (2, 3, 12); type: biochemical; details: at 200 uM for compounds, 0.001% for oils/extracts
From the text: as §1, §2

[6] = tested on: PGE2; experiment: Inhibition of host inflammation factor PGE2; type: cell-based; details: read-out: PGE2 % inhibition
From the text: as §3, §2

[7] = tested on: oral anaerobic bacterial biofilm containing Fusobacterium nucleatum; experiment: In vitro biofilm growth inhibition model (30 second exposure, MIC); type: cell-based; details: lowest concentration that completely inhibited biofilm growth following a 30 second exposure
Method: The method involves forming a bacterial biofilm in a plastic uncoated 12-well tissue culture plate. The culture material is removed from the wells and the biofilm is treated with a test solution or appropriate control usually for 30 seconds. Subsequently, the biofilm is washed twice with sterile saline and fresh medium is placed on the biofilm which is then incubated at 37° C. overnight. The next day, the culture in each well is suspended and the optical density determined to assess biofilm growth.

[8] = tested on: Total Facultative Anaerobes (TFA); experiment: Plaque Chip Assay (PCA), Total Facultative Anaerobes count; type: cell-based, oral bacteria from whole saliva of healthy human donors; details: vs. water
Method: (§4) In further studies, individual essential oil compounds and blends were evaluated for germ kill efficacy against oral anaerobes. For comparison, a cetyl pyridinium chloride solution (350 ppm) and a commercially available essential oil mouthrinse (Listerine® Cool Mint with ˜0.258% essential oil level) were tested.
(§5) Aqueous solutions (comprising 1% poloxamer 407 and 15% ethanol) were prepared with the essential oil load fixed at 0.15%. […] The test solutions were used neat in this experiment. The essential oil compounds and blends were tested using the Plaque Chip Assay (PCA) method, developed in the Procter & Gamble laboratories. The PCA method measures a combination of the following parameters: antibacterial efficacy (bacteria or germ kill), biofilm dispersion efficacy/chemical removal (chemical cleaning, e.g., detergency without germ kill), biofilm prevention and/or inhibition efficacy (prevention of biofilm growth) and active substantivity (cumulative efficacy).
(§6) The PCA method uses unmodified, whole saliva (obtained from multiple healthy human donors) to grow a biofilm containing relevant oral species on the surface of hydroxyapatite (HA) discs (the ‘chip’) mounted in the cap of plastic tubes (Nunc™ Cryovial). HA chips are subjected to five one-minute treatment and re-growth cycles, designed to mimic typical oral care product usage (dentifrice, rinse, gel) over a 2½ day period. Fresh saliva is replaced after each treatment, wherein the saliva used serves both as an inoculum of relevant oral bacteria, and as a nutrient source for the growth of the biofilm. Sixteen hours after the final treatment cycle, the biofilm remaining on the chip is removed, and the number of viable bacteria contained within it are measured by standard agar plate counting on ETSA (Enriched Trypticase Soy Agar) and ETSA-NV (Enriched Trypticase Soy Agar Supplemented with Nalidixic Acid and Vancomycin) media. The number of colony forming units per unit volume (cfu/ml) is measured for Total Facultative Anaerobes (TFA) and Gram Negative Anaerobes (GNA). Results are summarized in Table 3 below reported as Log Reduction in TFA and GNA colony forming units provided by test formulations vs. control, i.e., water or base aqueous solution (comprising 1% poloxamer 407 and 15% ethanol). Reductions in TFA or GNA bacterial counts vs. control are reasonably predictive of in vivo efficacy, in particular plaque removal efficacy and breath malodor reduction. […] Particularly for blends containing 3 or more components, the relative amounts of each component can be adjusted to provide the best germ kill efficacy along with the desired flavor profile.

[9] = tested on: Gram Negative Anaerobes (GNA); experiment: Plaque Chip Assay (PCA), Gram Negative Anaerobes count; type: cell-based, oral bacteria from whole saliva of healthy human donors; details: vs. water
Method: as §4, §5, §6

[10] = molecular target: COX-1 (Homo sapiens, UniProt P23219); experiment: Inhibition of host inflammation factor COX-1; type: biochemical; details: at 200 uM for compounds, 0.001% for oils/extracts
[11] = essential oil at 0.15% solution, five one-minute treatments
[12] = at 200 uM for compounds, 0.001% for oils/extracts

Sequence of METase (Q7MX71 whole entry): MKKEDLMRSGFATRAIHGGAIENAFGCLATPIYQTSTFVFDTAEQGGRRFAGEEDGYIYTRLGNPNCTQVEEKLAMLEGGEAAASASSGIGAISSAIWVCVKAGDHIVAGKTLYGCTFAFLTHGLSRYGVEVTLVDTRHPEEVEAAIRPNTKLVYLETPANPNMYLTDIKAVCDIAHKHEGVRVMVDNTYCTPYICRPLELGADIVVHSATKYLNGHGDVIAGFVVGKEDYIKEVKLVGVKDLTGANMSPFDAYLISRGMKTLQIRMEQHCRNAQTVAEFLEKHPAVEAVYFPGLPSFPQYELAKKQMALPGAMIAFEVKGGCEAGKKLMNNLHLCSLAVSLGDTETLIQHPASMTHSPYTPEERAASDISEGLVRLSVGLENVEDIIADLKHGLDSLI
Sequence of COX-1 (P23219 24-599): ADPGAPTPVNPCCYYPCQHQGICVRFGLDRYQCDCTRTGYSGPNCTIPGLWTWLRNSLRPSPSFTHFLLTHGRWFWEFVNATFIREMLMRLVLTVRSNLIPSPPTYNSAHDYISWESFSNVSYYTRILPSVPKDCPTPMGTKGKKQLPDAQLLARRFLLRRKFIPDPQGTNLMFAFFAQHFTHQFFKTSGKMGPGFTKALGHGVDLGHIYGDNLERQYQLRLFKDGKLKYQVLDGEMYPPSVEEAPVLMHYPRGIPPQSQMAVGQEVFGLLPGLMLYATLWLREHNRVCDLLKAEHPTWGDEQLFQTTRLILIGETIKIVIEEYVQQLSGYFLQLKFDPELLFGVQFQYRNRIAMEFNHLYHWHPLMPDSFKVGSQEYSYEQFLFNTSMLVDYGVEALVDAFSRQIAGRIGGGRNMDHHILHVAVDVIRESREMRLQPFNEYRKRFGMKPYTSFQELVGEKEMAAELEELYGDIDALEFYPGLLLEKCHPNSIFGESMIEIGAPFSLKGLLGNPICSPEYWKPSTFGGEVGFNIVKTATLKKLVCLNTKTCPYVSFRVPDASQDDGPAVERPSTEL

Row | Structure (SMILES) | Gingipain % inhibition [1] | inhibition at 200 µM [2] | Cystalysin % inhibition [3] | inhibition at 200 µM [4] | MMP (2, 3, 12) % inhibition [5] | inhibition at 200 µM [6] | Total Oil Level Inhibiting Biofilm Growth (MIC), single component [7] | Log Reduction in cfu/ml vs Control, TFA [8, 11] | Log Reduction in cfu/ml vs Control, GNA [9, 11] | inhibition at 200 µM [10] | inhibition at 200 µM [4, 12] | inhibition at 200 µM [6, 12] | Log Reduction in cfu/ml vs Control, TFA ([8]; 350 ppm solution) | Log Reduction in cfu/ml vs Control, GNA ([9]; 350 ppm solution)
1 | C=CCc1ccc(O)c(OC)c1 [Eugenol] | + (% inhibition <25% at 200 uM for compounds, 0.001% for oils/extracts) | < 25% | + (% inhibition <25% at 200 uM for compounds, 0.001% for oils/extracts) | > 25% | + (% inhibition <25% at 200 uM for compounds, 0.001% for oils/extracts) | > 75% | 0.2% | 0.09 log cfu/ml | 0.70 log cfu/ml | – | – | – | – | –
2 | Cc1ccc(C(C)C)cc1O [Carvacrol] | + (% inhibition <25% at 200 uM for compounds, 0.001% for oils/extracts) | < 25% | + (% inhibition <25% at 200 uM for compounds, 0.001% for oils/extracts) | > 25% | + (% inhibition <25% at 200 uM for compounds, 0.001% for oils/extracts) | > 75% | 0.1% | 0.08 log cfu/ml | 0.42 log cfu/ml | – | – | – | – | –
3 | CC(C)=CCC/C(C)=C/CO [Geraniol] | – | < 25% | + (% inhibition <25% at 200 uM for compounds, 0.001% for oils/extracts) | – | + (% inhibition <25% at 200 uM for compounds, 0.001% for oils/extracts) | – | 0.1% | 0.47 log cfu/ml | 0.60 log cfu/ml | > 50% | > 25% | > 25% | – | –
4 | CC12CCC(CC1)C(C)(C)O2 [Eucalyptol] | + (% inhibition <25% at 200 uM for compounds, 0.001% for oils/extracts) | < 25% | + (% inhibition <25% at 200 uM for compounds, 0.001% for oils/extracts) | – | + (% inhibition <25% at 200 uM for compounds, 0.001% for oils/extracts) | – | 0.1% | −0.06 log cfu/ml | 0.38 log cfu/ml | – | – | > 75% | – | –
5 | CCCCCCCCCCCCCCCC[n+]1ccccc1 [Cetylpyridinium Chloride (CPC), Cetylpyridinium Chloride, reference compound] | – | – | – | – | – | – | – | – | – | – | – | – | 1.45 log cfu/ml | 1.31 log cfu/ml
6 | CC(C)=CCCC(C)=CC=O [Citral] | + (% inhibition <25% at 200 uM for compounds, 0.001% for oils/extracts) | < 25% | – | – | + (% inhibition <25% at 200 uM for compounds, 0.001% for oils/extracts) | – | 0.2% | 0.33 log cfu/ml | 0.72 log cfu/ml | – | – | > 50% | – | –
7 | Cc1ccc(C(C)C)c(O)c1 [Thymol, reference compound] | – | – | – | – | – | – | 0.1% | – | – | – | – | – | – | –

From patent US20080253976A1, “Personal Care Compositions Comprising An Antimicrobial Blend of Essential Oils or Constituents Thereof” (priority 2007, published 2008)
